In patent publication US8541455B2, “Derivatives of 2-pyridin-2-yl-pyrazol-3(2H)-one, preparation and therapeutic use thereof as HIF activators” (Sanofi, priority 2008, dated 2013):
pEC50: −log10 of the molar value.

What was measured:
HIF1-alpha = experiment: Measurement of the stabilization of HIF1-alpha in HEKEA cells (beta-galactosidase complementation, luminescence); assay type: cell-based, human; conditions: HEKEA_HIF1-alphaPLBL cells, 6 hours incubation under normoxia; concentration that produces 50% of the maximum response of this same compound
Source text: Furthermore, a subject of the invention is also a uniform test process for the direct measurement by beta-galactosidase complementation of the amount of HIF1-alpha protein in the nucleus of cells, preferably HEK cells, after treating the said cells with one or more test compounds, which consists in: • (a) inoculating, preferably in 384-well plates, the said cells in a suitable culture medium, preferably 1% foetal calf serum (abbreviated as FCS); • (b) adding the test compound(s) at a suitable concentration in a suitable solvent to the cells previously inoculated in the said culture medium; preferably the test compounds are diluted in 0.1% FCS; • (c) incubating the said cells thus prepared in an indicator at about 37° C., advantageously for about 6 hours; • (d) lysing the cells with a lysis buffer containing a chemiluminescent substrate for beta-galactosidase; • (e) incubating in the absence of light, before reading and measuring the luminescence, which is a function of the beta-galactosidase activity.
Many tests exist describing the indirect measurement of the activity of HIF via reporter gene systems (HRE-luciferase) or via the measurement of HIF-induced proteins (for example VEGF or EPO). Furthermore, the only tests that allow direct measurement of the amount of HIF1-alpha protein in cells are tests using antibodies, for instance Western blotting comprising phases of cell extraction (total lysates or nuclear extracts) that are consuming in terms of cells and time, thus limiting the compound screening capacity. The object was thus to develop a sensitive screening test, adaptable to 384-well plates, for directly measuring the amount of HIF1-alpha protein in the nucleus of cells. This test was established in HEK cells ([…]).
The test is a cell test based on the principle of enzyme complementation, the enzyme used herein being beta-galactosidase. HEKEA cells are HEK cells stably expressing, and restricted in their nucleus, mutant beta-galactosidase (omega fragment, also known as EA) (line sold by DiscoverX). This construct makes it possible to obtain beta-galactosidase activity only when the protein comprising the Prolabel complementation fragment has migrated into the nucleus.
The protein of interest comprising the Prolabel fragment is in this case an HIF1-alpha or HIF1-alpha mutated at the two prolines 402 and 564 replaced with alanines, is C-terminal fused via molecular biology (DiscoverX vector sold by Clontech) with the small complementation peptide fragment (Prolabel or ED, about 4 kDa). The vector coding for the chimeric protein HIF1-alpha_Prolabel is then transfected into HEKEA cells to obtain stable clones (HEKEA_HIF1-alphaPLBL).
The amount of C-terminal Prolabel-“labelled” HIF1-alpha protein obtained after treating the cells to hypoxia or compounds that are potentially HIF activators is measured by adding to the cells a lysis buffer containing a chemiluminescent substrate for beta-galactosidase.
The measurement of the beta-galactosidase activity will be proportional to the amount of Prolabel and thus of HIF1-alpha that has migrated into the nucleus of the cells.
• 1.3.1 Experiment Plan • 1) Inoculation of the cells on D0 • 2) Adherence for 24 hours under normoxia • 3) Preparation and addition of the products (Biomek 2000 and FX) on D+1 • 4) Incubation under normoxia for 6 hours • 5) Reading of the plates (by luminescence)
The cells are inoculated with Multidrop in white, opaque-bottomed 384-well plates (Greiner ref 3704), in 30 μl of culture medium (1% FCS) at 10 000 cells/well (cell plate). • 1.3.3 Treatment • Preparation of the Dilution Plate (DL Plate)
The test products are prepared at 3×10^−2 M in 100% DMSO and then diluted to 3×10^−4 M in medium containing 0.1% FCS (10 μl in 990 μl of MEM). They are then deposited by hand into column 12 of a round-bottomed 96-well plate (200 μl of each compound) known as the dilution plate (dl). […]

[1] = tested on: EPO secretion by Hep3B cells; experiment: Measurement of the secretion of EPO by Hep3B hepatocytes (ELISA on supernatant); assay type: cell-based; conditions: Homo sapiens, 18 hours incubation under normoxia, EPO in supernatant, 50% of the maximum response of this same compound
Source text: (§1) 2. Measurement of the Secretion of VEGF and EPO by Hep3B Hepatocytes 2.1. Object
(§2) HIF is a transcription factor involved in the adaptation of cells to hypoxia. Since the genes activated by HIF are involved in the adaptive response of cells to hypoxia and of tissues to ischaemia, the object is to identify and characterize compounds that stabilize HIF1-alpha in cells in order to amplify or mimic its beneficial effect. HIF1-alpha was identified following the analysis of the EPO gene promoter, which makes this protein one of the first markers of HIF1-alpha activation. Moreover, VEGF is also identified in the literature as one of the main markers of HIF activation. It is for this reason that measurement of these two proteins was selected for characterizing compounds that are HIF activators in Hep3B cells.
(§3) The object was thus to develop a sensitive screening test, adaptable to 96-well plates, for directly measuring the amount of VEGF and EPO in the supernatant of the Hep3B cells (cells derived from a human hepatocarcinoma) in response to the potential HIF activators.
(§4) The test is an ELISA test for measuring VEGF and EPO in the supernatant of Hep3B cells treated under hypoxia or with deferoxamine as controls or with the potential HIF activators. The test was adapted to a 96-well plate, allowing greater compound screening capacity.
(§5) • 2.3.1 Experiment Plan • 1) Inoculation of the cells on D0 • 2) Adherence for 6 hours under normoxia • 3) Preparation and addition of the products (Biomek 2000 and FX) • 4) Incubation under normoxia for 18 hours • 5) EPO and VEGF assay in the supernatant on D+1 • 2.3.2 Inoculation of the Cells
(§6) The cells are subcultured into 100 μl of culture medium (10% FCS) in black, opaque-bottomed 96-well plates (reference Costar 3916) at 30 000 cells/well, with Multidrop. • 2.3.3 Treatment of the Cells
(§7) The test products are prepared at 10^−2 M in 100% DMSO and then diluted to […] in medium containing 0.1% FCS (6 μl in 194 μl of MEM). 200 μl of each compound are deposited in column 12 of a 96-well plate. Dilution ranges from […] to 3×10^−8M are prepared with Biomek 2000 (programme: range of 9 points in series). 100 μl of MEM 0.1% FCS and Deferoxamine 5×10^−3M are added as controls to column 3 and, respectively, to wells A,B,C,D and wells E,F,G,H • DL Plate Distribution in Cell Plates
(§8) The medium of the cells inoculated the day before into 96-well plates is changed for 90 μl of medium containing 0.1% FCS and 10 μl are distributed with FX 96 from the 96-well DL plates to the cell plates.
(§9) The cell plates thus treated are placed for 18 hours in an incubator at 37° C. (ambient O2, 6% CO2).
(§10) The supernatants (80 μl) of the Hep3B cells in the 96-well plates treated with the potential HIF activators are recovered with a multichannel pipette for simultaneous assay of the VEGF and the EPO by ELISA according to the supplier's instructions (Kit EPO Mesoscale (ref K15122B-2)).
(§11) The activating activity of a compound with respect to HIF is given by the concentration that produces 50% of the maximum response of this same compound in Table IV below.

[2] = tested on: VEGF secretion by Hep3B cells; experiment: Measurement of the secretion of VEGF by Hep3B hepatocytes (ELISA on supernatant); assay type: cell-based; conditions: Homo sapiens, 18 hours incubation under normoxia, VEGF in supernatant, 50% of the maximum response of this same compound
Source text: as §1, §2, §3, §4, §5, §6, §7, §8, §9, §10, §11

| Compound | pEC50 (HIF1-alpha) | pEC50 [1] | pEC50 [2] | melting point [°C] |
| --- | --- | --- | --- | --- |
| CCN(c1ccccc1)S(=O)(=O)c1ccc(-n2[nH]c(C)c(C3(c4ccccc4)CC3)c2=O)nc1 [Compound 80, N-ethyl-6-[3-methyl-5-oxo-4-(1-phenylcyclopropyl)-2,5-dihydro-1H-pyrazol-1-yl]-N-phenylpyridine-3-sulfonamide] | 5.48 | 6.40 | 6.05 | 146 |
| CCN(c1ccccc1)S(=O)(=O)c1ccc(-n2[nH]c(C)c(Cc3ncccc3OC)c2=O)nc1 [Compound 81] | 5.12 | 5.92 | 5.72 | 130 |
| CCN(c1ccccc1)S(=O)(=O)c1ccc(-n2[nH]c(COC)c(Cc3ccccc3)c2=O)nc1 [Compound 82] | 5.82 | 6.00 | 5.92 | 158 |
| CCN(c1ccccc1)S(=O)(=O)c1ccc(-n2[nH]c(C(F)(F)F)c(Cc3ccccc3)c2=O)nc1 [Compound 83, 6-(4-benzyl-5-oxo-3-trifluoromethyl-2,5-dihydro-1H-pyrazol-1-yl)-N-ethyl-N-phenylpyridine-3-sulfonamide] | 5.48 | 5.85 | 5.89 | 186 |
| CCN(c1ccccc1)S(=O)(=O)c1ccc(-n2[nH]c(C)c(CCc3ccccn3)c2=O)nc1 [Compound 85] | 5.74 | 5.60 | 5.60 | 188 |
| CCN(c1ccccc1)S(=O)(=O)c1ccc(-n2[nH]c(CC(C)C)c(Cc3ccccc3)c2=O)nc1 [Compound 88] | 6.06 | 6.52 | 6.40 | 138 |
| CCN(c1ccccc1)S(=O)(=O)c1ccc(-n2[nH]c(C)c(CCCc3ccccc3)c2=O)nc1 [Compound 92] | 6.07 | 6.30 | 6.30 | 158 |
